Source: US11672786B2, “Methods of treating diseases associated with repeat instability” (The Hospital for Sick Children, priority 2016, dated 2023)
Where “and” joins values, the source holds several entries; their conditions need not be identical. Equal values may be shown once.

Tested on: HT1080-(CAG)850 contact inhibition
Experiment: small-pool PCR repeat instability, non-proliferating HT1080-(CAG)850 cells under contact inhibition
Type: cell-based, human
Settings: 50 uM NA, 30 days
Method: The construction of the HT1080-(CAG)850 cell model was described previously (Sathasivam et al., 1997, Hum. Genet., 99:692-5). Briefly, HT1080 (ATCC) human fibrosarcoma cells were co-transfected with a plasmid (LC15-R) containing 800-850 (CTG)●(CAG) repeats (Nakatani et al., 2005, Nat. Chem. Biol., 1:39-43) and a plasmid encoding PhiC31 integrase. Transfection was performed with a Nucleofector (Lonza, Basel, Switzerland), and stably transfected clones were selected with puromycin. […] The HT1080-non-transcribing (CAG)850 cell model was established by transfecting a plasmid modified from pLC16 by inserting an additional SV40 polyadenylation signal downstream of the repeats (in addition to the original polyadenylation signals located upstream of the repeats), so that CAG/CTG repeats are floxed by transcription-terminator elements. The AttB-PhiC31 system has been widely used for single copy integration. […] The HT1080 model cells and an HD primary fibroblast cell line, GM09197 (Coriell Biorepository) with a large expanded allele of 180 CAG repeats and a non-expanded allele of 23 repeats (Sathasivam et al., 1997, Hum. Genet., 99:[…]), the HD primary fibroblast cell line, GM02191 (Coreill Biorepository) with an expanded allele of 43 CAG repeats and a non-expanded allele of 19 repeats, were cultured at 37° C. with 5% CO2 in Dulbecco's modified Eagle's medium supplemented with 10% fetal bovine serum and 1% penicillin/streptomycin. Cells were treated with or without continuous exposure to 50-μM NA for 30 days (HT1080 cells) or for 40 days (fibroblast cells). For experiments on non-proliferating cells, HT1080 cells were grown to confluence and then treated for the same period. WST-1 assay was performed according to the manufacturer's instructions (Roche, Basel, Switzerland). All cell lines were tested to be free of Mycoplasma. Three biological replicates were performed for each experiment.
Proliferation was inhibited by growth under contact inhibition and serum starvation, as previously performed. Degree of arrest from proliferation was assessed in living cells by counting BrdU positive cells after 24 hrs incubation with BrdU in proliferating or contact-inhibited (and serum starved) HT1080-(CAG)850 cells. The percentage of BrdU positive cells was 92.6% in proliferating cells and 8.17% in contact-inhibited cells. Although a small portion of HT1080-(CAG)850 cells were still proliferating even under contact-inhibition and serum starvation, the ratio is very small. Based on a calculation how many cells derive from a single cell after 30 days (the period that was studied) (proliferating, 1.926^30=348653546.6; contact inhibition, 1.0817^30=10.55), the effect of proliferation in contact-inhibited cells can be ignored.
Genomic DNA was extracted from HT1080-(CAG)850 clones and HD primary fibroblasts using the Gentra Puregene Cell Kit (Qiagen, Valencia, Calif.). The expanded (CTG)●(CAG) repeats were sized by small-pool PCR (sp-PCR) followed by Southern blot as described previously (Sathasivam et al., 1997, Hum. Genet., 99:692-5). For HT1080 models, small-pool PCR (spPCR) was performed with the input of 1.4-1.7 genome equivalents. The repeat size difference in the models is, at most, 3000 base-pairs, therefore, being strictly conservative, a bias toward amplifying the shorter allele can be possible, even under optimized PCR conditions described herein. For HD primary fibroblasts, sp-PCR & Southern blots were performed as described previously with slight modifications (Tome et al., 2013, PLoS Genet., 9:e1003280). Briefly, the PCR primers listed in Table 1 were used, and blots were hybridized with a DIG-labeled (CAG)7 locked nucleic acid probe (Nakamori et al. 2009, Neuromuscul. Disord., 19:759-62).

[1] = single experiments Ex 1-3, cut-off ±25 repeats

## naphthyridine-azaquinolone
Total
  % Contraction: 53.3%
  % Expansion: 16.6%
  % Unchanged: 30.2%
  Average Change of Repeat Size: −90.9 number of repeats
Single experiments Ex 1-3
  % Unchanged: 34.9% and 25.0% and 30.0%
[1]
  % Contraction: 49.2% and 57.1% and 54.0%
  % Expansion: 15.9% and 17.9% and 16.0%
